# Earlier results in patent US9155702B2, “Composition and microsphere for controlled-release of exendin, and method preparing the same” (PEPTRON CO., LTD, priority 2007, dated 2015).
# System: diabetic ob/ob mice
# Settings: intraperitoneal injections once per day
substance,measurement,value
exendin-4,effect of lowering the blood-sugar level,prolonged effect of lowering the blood-sugar level
